Measured values taken from US6608004B2, “Substituted 2-aryl-1,2,4-triazine-3,5-di(thi)ones” (priority 1999, dated 2003).

Columns and labels:
[1] = logP determination by HPLC, reversed-phase column (C 18), EEC Directive 79/831 Annex V.A8; conditions: for chromatographic logP: pH 2
From the text: (a) Mobile phases for the determination in the acidic range: 0.1% aqueous phosphoric acid, acetonitrile; linear gradient from 10% acetonitrile to 90% acetonitrile—the corresponding measurement results are labelled in Table 1 with ^a).
(b) Mobile phases for the determination in the neutral range: 0.01 molar aqueous phosphate buffer solution, acetonitrile; linear gradient from 10% acetonitrile to 90% acetonitrile—the corresponding measurement results are labelled in Table 1 with ^b).

[2] = tested on: weeds; assay: Pre-Emergence Test (Example A), activity against weeds; assay type: in vivo; conditions: soil sprayed about 24 hours after sowing, rated after three weeks
From the text: (§1) Solvent: 5 parts by weight of acetone
(§2) Emulsifier: 1 part by weight of alkylaryl polyglycol ether
(§3) Seeds of the test plants are sown in normal soil.
0%=no effect (like untreated control)

[3] = tested on: weeds; assay: Post-Emergence Test (Example B), activity against weeds; assay type: in vivo; conditions: test plants of a height of 5-15 cm sprayed, rated after three weeks
From the text: as §1, §2
(§4) After three weeks, the degree of damage to the plants is rated in % damage in comparison to the development of the untreated control.

[4] = tested on: crop plants, such as, for example, barley and wheat; assay: Post-Emergence Test (Example B), tolerance by crop plants
From the text: as §1, §2, §4

[5] = tested on: crop plants, such as, for example, barley, wheat, rapeseed, soya and sugar beet; assay: Pre-Emergence Test (Example A), tolerance by crop plants; assay type: in vivo
From the text: as §1, §2, §3

[6] = reversed-phase HPLC column (C 18)

SMILES	melting point	chromatographic logP [1]	activity against weeds (degree of damage) [2]	activity against weeds (degree of damage) [3]	tolerance by crop plants ([4]; post-emergence, barley and wheat, rated after three weeks)	tolerance by crop plants ([5]; pre-emergence, barley, wheat, rapeseed, soya and sugar beet, rated after three weeks)	chromatographic logP [1, 6]	tolerance by crop plants ([4]; in vivo)	tolerance by crop plants ([5]; in vivo)	logP a) [1]
N#Cc1cc(F)c(-n2ncc(=O)[nH]c2=O)cc1F	> 250 °C									
CCS(=O)(=O)N(C(=O)Oc1ccccc1)c1cc(-n2ncc(=O)n(C)c2=O)c(F)cc1C#N [Example 1, 2-[5-(N-phenoxy-carbonyl-N-ethylsulphonylamino)-4-cyano-2-fluoro-phenyl]-4-methyl-1,2,4-triazine-3,5(2H,4H)-dione]	181 °C	2.76								
C=CC(=O)N(c1cc(-n2ncc(=O)n(C)c2=O)c(F)cc1C#N)S(=O)(=O)CC [Example 2, 2-[5-(N-acryloyl-N-ethylsulphonylamino)-4-cyano-2-fluoro-phenyl]-4-methyl-1,2,4-triazine-3,5(2H,4H)-dione]	118 °C		very strong activity	very strong activity	essentially being tolerated well	essentially being tolerated well	1.97			
CCS(=O)(=O)N(C(=O)CCC1CCCC1)c1cc(-n2ncc(=O)n(C)c2=O)c(F)cc1C#N [Example 46]			very strong activity	very strong activity				essentially being tolerated well	essentially being tolerated well	m.p.: 143 °C logP = 3.34^a)
CCS(=O)(=O)N(C(=O)C1CCCC1)c1cc(-n2ncc(=O)n(C)c2=O)c(F)cc1C#N [Example 47]			very strong activity	very strong activity				essentially being tolerated well	essentially being tolerated well	m.p.: 93 °C logP = 2.66^a)
CCS(=O)(=O)N(C(=O)c1ccc(C(C)(C)C)cc1)c1cc(-n2ncc(=O)n(C)c2=O)c(F)cc1C#N [Example 49]			very strong activity	very strong activity				essentially being tolerated well	essentially being tolerated well	m.p.: 119 °C logP = 3.57^a)
CCOc1ccc(CCC(=O)N(c2cc(-n3ncc(=O)n(C)c3=O)c(F)cc2C#N)S(=O)(=O)CC)cc1 [Example 51]			very strong activity	very strong activity				essentially being tolerated well	essentially being tolerated well	m.p.: 74 °C logP = 3.22^a)
CCS(=O)(=O)Nc1cc(-n2ncc(=O)n(C)c2=O)c(F)cc1C#N [Example (II-1), 2-(2-fluoro-4-cyano-5-ethylsulphonylamino-phenyl)-4-methyl-1,2,4-triazine-3,5(2H,4H)-dione]	233 °C						1.66			
